These results are taken from patent US9896474B2, “(3A,9B,10A,13A,14B,17A,20S,22E)-ergosta-5,7,22-trien-3-ol and methods of preparing and using the same” (priority 2014, dated 2018).

The subject of data set [1] is Lewis lung cancer model. As to the kind of experiment: Anti-Lewis tumor experiment (Lewis lung cancer bearing mouse). It is filed as in vivo. The conditions noted are these: Lewis mice, 10 days; for Net weight variation (g) / Tumor weight: x ± s. The source says:
The purpose of the experiment was adopting the Lewis tumor bearing mouse model to observe the antitumor effect of C310-6.
Tumor bearing mouse inoculated with the tumor for 8-13 days and in good condition was killed by dislocation. Body surface of the mouse was disinfected by alcohol. The tumors were separated from the mouse and placed in sterile petri dish containing normal saline in a sterile environment (super clean bench). The tumors were cut into small piece and transferred to a tissue homogenizer, the normal saline was added with a volume ratio of the tumor piece to the normal saline being 1:3, a resulting homogenate was put into a 50 mL sterile centrifuge tube. 0.2 mL of the homogenate was inoculated to right axilla of each KM mouse by 1 mL syringe. The tumor cell suspension was prepared in the sterile environment (the super clean bench), and the serial operations from the tumor separation to the tumor inoculation were accomplished in 60 min
(§1) Oral agent of C310-6: a certain weight of C310-6 sample was placed in a mortar, and Tween-80 having a volume of 2% of a certain volume of a solvent was added and fully ground. Thereafter, the normal saline was added and fully stirred to form a solution. Solutions having a concentration of the C310-6 sample of 24 mg/mL, 8 mg/mL, and 2.7 mg/mL were prepared.
(§2) Oral agent of CTX: CTX pill was removed from a film and a certain amount of the pill was placed in a mortar. A certain volume of normal saline was added, fully ground, and mixed to prepare a solution having a concentration of CTX to be 3.4 mg/mL.
(§3) 60 experimental mice were divided into 6 groups with each group having 10 mice, a half of the mice being female and another half of the mice being male. The groups are specifically as follows: 1) group administered with a low dose of C310-6 (27 mg/kg), 2) group administered with middle dose of C310-6 (80 mg/kg), 3) group administered with high dose of C310-6 (240 mg/kg), 4) group administered with CTX, 5) model group, and 6) blank control group. The above groups, except the model group and the blank control group, are administered with 0.2 mL of the drugs once a day after the injection of the tumor suspension, and the administration was lasted for 10 days. The model group and the blank control group are administered orally with equal volume of aqua solutions containing 2 v. % of Tween-80 for 10 days.
(§4) The weight and food intake of the mice were weighed and recorded every day, and a net weight of each mouse after tumor removal was calculated at the last time.
(§5) The separated tumor tissue was weighed, and the inhibition rate on the tumor growth was calculated according to the following equation: […]
Data of mice in each group were expressed by corresponding data and were processed by SPSS software, each group was examined by one-way ANOVA.

Data set [2] relates to H22 liver cancer model. As to the kind of experiment: Antitumor experiment against H22 tumor bearing mice. It is filed as in vivo. The conditions noted are these: 10 days; for Net weight variation (g) / Tumor weight: x ± s.
Description: Antitumor Experiment of C310-6 Against H22 Tumor Bearing Mice
H22 tumor bearing mice were adopted to observe the effect of the anti-liver cancer of five classes of mixtures.
H22 tumor bearing mouse inoculated with the tumor for 8-13 days and in good condition was killed by dislocation. Body surface of the mouse was disinfected by alcohol. The tumors were separated from the mouse and placed in sterile petri dish containing normal saline in a sterile environment (super clean bench). The tumors were cut into small piece and transferred to a tissue homogenizer, the normal saline was added with a volume ratio of the tumor piece to the normal saline being 1:3, a resulting homogenate was put into a 50 mL sterile centrifuge tube. 0.2 mL of the homogenate was inoculated to right axilla of each C57BL/6 mouse by 1 mL syringe. The tumor cell suspension was prepared in the sterile environment (the super clean bench), and the serial operations from separation of the abdominal dropsy of the tumor to the tumor inoculation were accomplished in 60 min
as §1, §2
as §3, with “0.3” for “0.2”
as §4, §5
Data of mice in each group were expressed by and were processed by SPSS software, each group was examined by one-way ANOVA.

For data set [3], the system named is human lung cancer cells A549. As to the kind of experiment: iCELLigence real-time cell-analyzer (RTCA) growth monitoring, A549. The class given is cell-based. To be noted: 1.6-100 μg/mL, 48 hrs, FIG. 7.
The test system of data set [4] is human hepatoma cells Hep-g2. The data set can be described thus: iCELLigence real-time cell-analyzer (RTCA) growth monitoring, Hep-g2. It is filed as cell-based. To be noted: 1.6-100 μg/mL, 48 hrs, FIG. 6. On the procedure:
1. Eight-well plate (E-Plate L8) supplied by ACEA Bio (Hangzhou) Co. Ltd. was combined with an iCELLigence real-time cell-analyzer (RTCA). 150 μL of a complete F-12K medium was added to each well and the eight-well plate was placed in an incubator at a temperature of 37° C. and an atmosphere of 5% CO2, and the background data were regulated to 40-130. The compound C310-6 was fully dissolved by dimethyl sulfoxide to concentrations of 100 mg/mL, 50 mg/mL, 25 mg/mL, 12.5 mg/mL, 6.3 mg/mL, 3.1 mg/mL, and 1.6 mg/mL, and then diluted to by the complete F-12K medium obtain working solutions having concentrations of 10 mg/mL, 5 mg/mL, 2.5 mg/mL, 1.25 mg/mL, 0.63 mg/mL, 0.31 mg/mL, and 0.16 mg/mL. Well cultivated human hepatoma cells Hep-g2 were digested by trypsin and diluted into live cell suspensions with a concentration of 4×10^4/mL. Thereafter, 345 μL of the live cell suspension of C310-6 was inoculated to each well of an eight-well plate, and then 5 μL of the working solution was added to each well to enable final concentrations of the C310-6 compound to be 100 μg/mL, 50 μg/mL, 25 μg/mL, 12.5 μg/mL, 6.3 μg/mL, 3.1 μg/mL, and 1.6 μg/mL. An eighth hole was added with the complete F-12K medium containing 1 wt. % of dimethyl sulfoxide as a blank control group, and was displaced into the incubator at 37° C. and 5% CO2 for 48 hrs.

In data set [5] the test system is human lung cancer cells A549. As to the kind of experiment: MTT assay on human lung cancer cells A549. The class given is cell-based. To be noted: A549 section, 48 hrs, OD 490 nm, read-out: 1050 value (cell viability curve). For orientation: Tetrazolium assays rely on reduction of a dye to a coloured formazan, in cell work by metabolically active cells.
Data set [6] concerns human hepatoma cells Hep-g2. As to the kind of experiment: MTT assay on human hepatoma cells Hep-g2. The class given is cell-based. To be noted: HepG2, 48 hrs, OD 490 nm, read-out: 1050 value (cell viability curve). On the procedure:
a. 250 mg of 3-(4,5-dimethylthiazol-2-yl)-2,5-diphenyltetrazolium bromide (MTT) was dissolved by 50 mL of phosphate buffered saline (PBS) having a concentration of 0.01 mol/L and PH=7.45 to yield a MTT solution having a final concentration of 5 mg/mL. The MTT solution was dispensed and protected against light at the temperature of −20° C. after filtration and sterilization.
b. A suspension of single cell line was prepared and inoculated into 96-well plate (cells were diluted to a concentration of 4×10^4/mL by the F-12K basic culture medium, 100 μL diluted cells were added to each well and cultivated at 37° C., 5% CO2 for 20 hrs, each group was provided with 4 parallel samples).
c. The culture medium was removed; and new culture mediums were prepared according to serial concentration of the antitumor drug (C310-6), each well was added with 100 μL of the new culture medium and cells were cultivated for 48 hrs.
d. 20 μL of MTT solution having the concentration of 5 mg/mL was added to each well for incubating the cells for 4 hrs.
e. […]
f. OD values were measured by a microplate reader, λ=490 nm
g. A cell viability curve was charted, 1050 value was calculated to be 14.152 μg/mL, which means that the compound has excellent human hepatoma cells Hep-g2 activity resistance.

SMILES strings stand for the structures. Values after ≈ are worked out from the molar mass of the structure shown. Values joined by “and” are separate entries in the source; they are usually repeats but may differ in a detail not shown here. Identical values can stand only once.

As for `O=P1(N(CCCl)CCCl)NCCCO1` (centres unmarked) [CTX, cyclophosphamide, reference compound], in data set [1] (20 mg/kg oral once a day), the “Lung cancer transmission rate (%)” value turned out to be 20%, the “Survival rate (%)” value was found to be 100%, the “Tumor inhibition rate (%)” value was determined as 46.29% and the “Net weight variation (g)” value was −0.94 ± 1.03**※※ g. Besides, the “Tumor weight” value in data set [1] (20 mg/kg oral once a day) turned out to be 0.90 ± 0.39 g. Besides, in data set [2] (20 mg/kg oral once a day), the “Liver transfer rate (%)” value is given as 0%, the “Survival rate (%)” value is recorded as 100%, the “Tumor inhibition rate (%)” value came to 52.9% and the “Net weight variation (g)” value is listed as 1.73 ± 2.73**※※ g. The “Tumor weight” value in data set [2] (20 mg/kg oral once a day) came to 0.25 ± 0.21 g.
For the compound `CC(C)[C@@H](C)/C=C/[C@H](C)[C@@H]1CC[C@@H]2C3=CC=C4C[C@H](O)CC[C@@]4(C)[C@@H]3CC[C@]21C` [C310-6, (3α,9β,10α,13α,14β,17α,20S,22E)-ergosta-5,7,22-trien-3-ol], the “growth of human lung cancer cells A549 (real-time data)” value in data set [3] was “inhibited”. For the same compound, the “Lung cancer transmission rate (%)” value is 40% in data set [1] (27 mg/kg oral once a day), 50% in data set [1] (80 mg/kg oral once a day) and 30% in data set [1] (240 mg/kg oral once a day). In addition, the “Survival rate (%)” value in data set [1] (27 mg/kg oral once a day), in data set [1] (80 mg/kg oral once a day), in data set [1] (240 mg/kg oral once a day), in data set [2] (27 mg/kg oral once a day), in data set [2] (80 mg/kg oral once a day) and in data set [2] (240 mg/kg oral once a day) was 100% throughout. The “Tumor inhibition rate (%)” value in data set [1] (27 mg/kg oral once a day) is 15.76%; in data set [1] (80 mg/kg oral once a day) it was 28.39%; in data set [1] (240 mg/kg oral once a day), 44.59%; in data set [2] (27 mg/kg oral once a day), 23.4%; in data set [2] (80 mg/kg oral once a day, 80 mg/kg) it was > 40% and 41.1%; in data set [2] (240 mg/kg oral once a day, 240 mg/kg), > 40% and 64.4%. Besides, the “Net weight variation (g)” value in data set [1] (27 mg/kg oral once a day) is −0.36 ± 1.33**※※ g; in data set [1] (80 mg/kg oral once a day), −0.95 ± 1.30**※※ g; in data set [1] (240 mg/kg oral once a day), −0.61 ± 1.36**※※ g; in data set [2] (27 mg/kg oral once a day) it was 6.92 ± 2.65∘∘ g; in data set [2] (80 mg/kg oral once a day) it was 7.78 ± 3.72∘∘ g; in data set [2] (240 mg/kg oral once a day, weight after tumor removal vs original), 5.70 ± 4.05*※∘∘ g. The “Tumor weight” value in data set [1] (27 mg/kg oral once a day) was determined as 1.42 ± 0.94 g; in data set [1] (80 mg/kg oral once a day) it was 1.21 ± 0.26 g; in data set [1] (240 mg/kg oral once a day) it was 0.93 ± 0.45 g; in data set [2] (27 mg/kg oral once a day), 0.42 ± 0.60 g; in data set [2] (80 mg/kg oral once a day) it was 0.32 ± 0.43 g; in data set [2] (240 mg/kg oral once a day), 0.19 ± 0.18 g. In addition, the “growth of human hepatoma cells Hep-g2 (real-time data)” value in data set [4] is reported as “inhibited”. Also, the “Liver transfer rate (%)” value in data set [2] (27 mg/kg oral once a day), in data set [2] (80 mg/kg oral once a day) and in data set [2] (240 mg/kg oral once a day) was 0% throughout. The IC50 in data set [5] and in data set [6] was 14.2 µg/mL (≈ 35.7 µM) in each case.
